We go through 1 compound from patent US20260232752A1, “COMBINATION THERAPY METHODS, COMPOSITIONS AND KITS” (Accure Therapeutics, S.L., priority 2019, published 2026).

The test system of test [1] is experimental autoimmune encephalomyelitis (EAE) mouse model. Description: Study EAE-C05: clinical score in EAE mouse model with active comparators. The format is in vivo. Conditions: 100 mg/kg daily, after 5 days of treatment. On the procedure:
A second experiment (Study EAE-C05) was then performed using the same mouse model.
Study EAE-C05: In addition to two dose levels of BN201 and a placebo-treated group (pathological control group), the study design introduced two active comparators, dimethyl fumarate (DMF) and fingolimod (FTY720), and a sham group (group in which animals were manipulated as the pathological group but without MOG injection). All groups were administered daily. • sham control non-diseased placebo-treated animals (healthy control group); • EAE-affected placebo-treated animals (pathological control group); • EAE-affected animals treated orally with 15 mg/kg of DMF; • EAE-affected animals treated with 2 mg/kg of FTY720; • EAE-affected animals treated with BN201 at 50 or 100 mg/kg.
(§1) Clinical scores were assigned to assess disease severity using the following scale: 0=normal; 0.5=Partial tail paralysis; 1=Complete tail paralysis; 1.5=Tail paralysis and loss of righting reflex; 2=Partial hind limb paralysis/paralysis of one limb; 2.5=One limb paralysis and partial loss of activity of one other limb; 3=Bilateral hind limb paralysis; 4=Moribund; 5=exitus.
Therapeutic treatment was initiated on day 12 or 13, once each mouse started showing complete tail paralysis (Score 1).

Test [2] has as its system EAE in C57BL6 mice immunized with MOG35-55. Description: Example 4: BN201 and STAT3 inhibitor combination, chronic phase of EAE. The format is in vivo, mouse. Conditions: BN201 50 mg/kg i.p. alone (optimal), from day 34 to day 54. On the procedure:
Effect during the chronic phase of the disease in the animal model of Multiple Sclerosis (i.e., EAE in C57BL6 mice immunized with MOG35-55)
Efficacy and safety of combination therapy with optimal doses of BN201 (50 mg/kg) and S31-201 (5 mg/kg) in the progression of chronic EAE in mice.
Starting the chronic phase of the disease (by day 34) mice were administered: • the STAT3 inhibitor S31-201 (group A, 7 mice), • BN201 (group B, 6 mice), or • a combination thereof (group C, 6 mice) once a day for six days per week at optimal dosages (5 mg/kg for S31-201, 50 mg/kg for BN201).
S31-201 and BN201 were administered via i.p. injection in a saline vehicle at a volume of 5 mL/kg. Control mice received vehicle only via both oral and i.p. injection (group D, 6 mice) or nothing at all (group E, 2 mice). Mice were treated from day 34 (chronic EAE stage) until the end of the experiment on day 54.
The combination of BN201 and the STAT3-inhibitor S31-201 was evaluated for its effect during the chronic phase of the disease in the animal model of Multiple Sclerosis (i.e., EAE in C57BL6 mice immunized with MOG35-55). The objective of the study was to evaluate the efficacy and safety of combination therapy with optimal doses of BN201 (50 mg/kg) and 531-201 (5 mg/kg) in the progression of chronic EAE in mice. […]

Test [3] deals with experimental autoimmune encephalomyelitis (EAE) mouse model. Description: Study EAE-C06: dose response of BN201, clinical score in EAE mouse model. Conditions: almost all days of observation/treatment (Day 2 to day 30). The format is in vivo. On the procedure:
A third experiment (Study EAE-C06) to test dose response of BN201 was then performed using the same mouse model.
Study EAE-C06: five different concentrations of BN201: 12.5 mg/kg, 25 mg/kg, 50 mg/kg, 100 mg/kg, and 150 mg/kg. Also sham, pathological control and FTY720 (2 mg/kg) comparator groups were included in the experiment. All groups were administered daily.
as §1
Therapeutic treatment was initiated on day 12 once each mouse started showing complete tail paralysis (Score 1).
Data are depicted in FIG. 1 (C), wherein the clinical score for each of the tested groups is plotted per day after disease onset.

In the case of `CC(C)CN(CC(=O)N(CCCN1CCCC1=O)CC(N)=O)C(=O)CNCCc1ccccc1F` [BN201, [N-(2-(2′-Fluorophenyl)ethyl)glycyl]-[N-(2-methylpropyl)glycyl]-N-[3-(2′-oxopyrrolidinyl)-propyl]glycinamide], the “clinical score compared to pathological control group” value in test [1] is recorded as “significantly lower”. In addition, the “course of EAE in chronic phase (clinical score)” value in test [2] is reported as “not efficacious”. Further, the clinical score result in test [3] (50 mg/kg daily) and in test [3] (100 mg/kg daily) was “significant amelioration of the clinical score” in each case.
